# Experimental data: paper PMC9505732, “Chemistry and Bioactivity of the Deep-Water Antarctic Octocoral Alcyonium sp” (Marine Drugs, 2022)
# How the values were obtained:
# Leishmania donovani = Leishmania donovani infected macrophage assay; type: cell-based; conditions: read-out: IC50 against Leishmania donovani
# Description: (§1) The Leishmania donovani infected macrophage assay and cytotoxicity screen were conducted as previously described.
# [1] = Cytotoxicity screen against Leishmania host cell line; type: cell-based; conditions: mouse, J774.A1 macrophages
# Description: as §1
# [2] = MTT cytotoxicity toward human kidney cells; type: cell-based; conditions: human, HEK293T cells; host cell line HEK293T, MTT, 24 h incubation
# Description: (§2) The cytotoxicity of the metabolites to human liver cells and kidney cells was determined using an MTT based-In Vitro Toxicology Assay Kit (Sigma–Aldrich, St. Louis, MO, USA) following the manufacturing instructions. The human kidney HEK293T cells and the human liver HEPGZ cells were used for the evaluation in this study. Both cell samples were maintained and suspended in Dulbecco’s Modified Eagle Medium (DMEM with 4.5 g/L glucose, L-glutamine and sodium pyruvate, Corning, Manassas, VA, USA) containing 10% fetal bovine serum (Thermo Scientific) and 1% penicillin/streptomycin at 37 °C under 5% CO2 atmosphere. The cells were plated on a 96-well plate with approximately 5 × 10^3–1 × 10^4 cells in each well, and incubated at 37 °C overnight. After that, each of the selected extracts from the antimicrobial susceptibility test was added to the wells and incubated with the cells at a series of 2-fold diluted concentrations ranging from 128 μg/mL to 0.125 μg/mL. […] After that, the liquid in each well of the plate was removed carefully and thoroughly, then the cells in the wells were treated with 100 μL of DMSO, and incubated at 37 °C for 15 m. […] Bio Tek Instruments, Inc. Winooski VT). Cells treated with vancomycin, a common option for treating CDI in clinical settings, were also included in the MTT tests as a control. Cell survival and the IC50 were calculated according to the method used in a previous publication: Survival of cells (%) = Drug-treated group OD540/control group OD540 × 100. The IC50 value was calculated as follows: lgIC50 = Xm − I [P − (3 − Pm − Pn)/4], where Xm was the log maximum dose, I was the log (maximum dose/adjacent dose), P was the sum of the positive response rate, Pm was the maximum positive response rate, and Pn was the minimum positive response rate.
# [3] = system: ESKAPE panel of bacterial pathogens; test: ESKAPE panel antibacterial screen; type: cell-based
# [4] = MTT cytotoxicity toward human liver cells; type: cell-based; conditions: human, HepG2 cells; host cell line HepG2, MTT, 24 h incubation
# Description: as §2
# C. difficile UK6 = test: microbe, parasite or virus in culture; type: cell-based, Clostridium difficile; conditions: Clostridioides difficile, UK6, 48 h, read-out: MIC against C. difficile
# Description: The screening against C. difficile was performed in two steps. In step 1, overnight culture of a hyper-virulent clinical strain C. difficile UK6 was inoculated into a fresh BHIS medium at a volume ratio of 1:1000. After pre-incubation at 37 °C under an anaerobic atmosphere for 2 h, the bacterial culture was divided into a sterile 96-well plate and each well contained 192 μL of bacterial culture. Then, 8 μL of each extract was added to each well of the plate, mixed thoroughly, and incubated at 37 °C in an anaerobic chamber for 48 h. Control groups of 200 μL of BHIS medium only, 200 μL of bacterial culture only, and 192 μL of bacterial culture in 8 μL of DMSO were also included in separate columns within each plate. […] Serial dilutions of each extract (400 μg/mL, 200 μg/mL, 100 μg/mL, 50 μg/mL, 20 μg/mL, 10 μg/mL, 5 μg/mL, and 2 μg/mL) were prepared in a fresh BHIS medium. Then, 100 μL of each extract dilution was added to 100 μL of bacterial culture (pretreated as described), mixed well, and incubated at 37 °C in an anaerobic chamber for 48 h. Control groups including wells containing fresh medium only and bacterial culture only were also included as described. Activity was determined as +/− (clear or turbid (OD600) culture). The MICs of the three recommended antibiotics metronidazole, vancomycin, and fidaxomicin against C. difficile UK6 were also determined using broth microdilution methodology.
# HEK293T cells = test: MTT cytotoxicity toward human kidney cells; type: cell-based; conditions: at the same concentrations alcyopterosins were assayed
# Description: as §2
# HepG2 cells = test: MTT cytotoxicity toward human liver cells; type: cell-based; conditions: at the same concentrations alcyopterosins were assayed
# Description: as §2
IC50 (Leishmania donovani) [µM],Structure (SMILES),activity against the ESKAPE panel of bacterial pathogens [3],MIC (C. difficile UK6) [µM],also measured
13,Cc1cc2c(c(C)c1CCO[N+](=O)[O-])CC(C)(C)C2=O [alcyopterosin C],–,–,–
2.4,Cc1cc2c(c3c1[C@@H](CCl)OC3=O)CC(C)(C)[C@@H]2O [alcyopterosin L],–,–,–
6.2,"CCCCCCCCCCCCCCCCOP(=O)([O-])OCC[N+](C)(C)C [miltefosine, reference compound]",–,–,–

# The next lines start with the compound.
Structure (SMILES),IC50 (Leishmania donovani) [µM],activity against the ESKAPE panel of bacterial pathogens [3],MIC (C. difficile UK6) [µM],also measured
"CC(=O)OCCc1c(C)cc2c(c1COC(C)=O)CC(C)(C)C2 [4,12-Bis(acetyl)alcyopterosin O, 4,12-bis(acetyl)alcyopterosin O]",1.2,–,–,–
Cc1cc2c(c3c1[C@@H](CO[N+](=O)[O-])OC3=O)CC(C)(C)C2 [Alcyopterosin E],3.1,inactive,6.9,IC50 [1]: 62 µM; CC50 at 24 h [2]: 570 µM; CC50 at 24 h [4]: 331 µM
Cc1cc2c(c3c1[C@@H](CO)OC3=O)CC(C)(C)C2 [Alcyopterosin V],7,inactive,8.1,IC50 [1]: 110 µM; CC50 at 24 h [2]: 220 µM; CC50 at 24 h [4]: 288 µM
"CN[C@H](CC(C)C)C(=O)N[C@H]1C(=O)N[C@@H](CC(N)=O)C(=O)N[C@H]2C(=O)N[C@H]3C(=O)N[C@H](C(=O)N[C@H](C(=O)O)c4cc(O)cc(O)c4-c4cc3ccc4O)[C@H](O)c3ccc(c(Cl)c3)Oc3cc2cc(c3O[C@@H]2O[C@H](CO)[C@@H](O)[C@H](O)[C@H]2O[C@H]2C[C@](C)(N)[C@H](O)[C@H](C)O2)Oc2ccc(cc2Cl)[C@H]1O [Vancomycin, reference compound]",–,–,0.34,toxicity to host cells HEK293T (HEK293T cells): non-toxic; toxicity to host cells HepG2 (HepG2 cells): non-toxic
CC(=O)O[C@@H]1[C@H](OC(C)=O)[C@H]([C@H](C)CCCC(C)C)[C@@]2(C)C[C@@H](OC(C)=O)[C@H]3[C@@H](C[C@@H](O)[C@H]4CC=CC(=O)[C@]34C)[C@H]12 [alcyosterone],1.5,inactive,–,–
